Source: EP4667483A1, “HUMAN TRANSFERRIN RECEPTOR-BINDING PEPTIDE” (JCR Pharmaceuticals Co., Ltd., priority 2023, dated 2024)
Where two headings read alike, the source gives them in different places. One block for each compound: values may come before it. Numbered stars: 1 amine (or outer) side, 2 acyl side, 3 side chain; on linkers, the order of the positions; unused ones are H or OH. Bridge positions count the residues as written; N and C are the ends. Square brackets hold non-standard residues; d marks the D form. Peptide text beside a SMILES is read from it. * marks the point of attachment. CH2CO(D-glucamine) = O=C(C*)NC[C@H](O)[C@@H](O)[C@H](O)[C@H](O)CO; NH(1-deoxy-D-glucityl) = OC[C@@H](O)[C@@H](O)[C@H](O)[C@@H](O)CN*; Trp(1-CH2COOH) = N[C@@H](Cc1cn(CC(=O)O)c2ccccc12)C(=O)O; NMePhe(3-Cl) = CN[C@@H](Cc1cccc(Cl)c1)C(=O)O; NMeW = CN[C@@H](Cc1c[nH]c2ccccc12)C(=O)O; X6 = Cc1cc(C[C@H](N[*:1])C(=O)[*:2])ccn1; NMeY = CN[C@@H](Cc1ccc(O)cc1)C(=O)O; Nva(3-Et) = CCC(CC)[C@H](N)C(=O)O; PEG4 = NCCOCCOCCOCCOCCC(=O)O; Carboxymethyl = O=C(O)C*

Molecular target: human transferrin receptor (hTfR) (Homo sapiens, UniProt P02786)
Experiment: SPR measurement under pH 6.0 conditions (Biacore T200, NTA chip, immobilized hTfR)
Type: binding
Conditions: read-out: hTfR SPR pH6.0 KD
Procedure: Molecular interactions between the synthesized peptides and the transferrin receptor (hTfR) were evaluated by surface plasmon resonance (SPR) using the following method. The specific assay procedure is described below.
An NTA sensor chip (Cytiva) was inserted in a Biacore T200 (Cytiva), a priming operation was performed 3 times with a running buffer: HBS-P+ pH 6.0 (Cytiva), and an equilibrium state was created at a flow rate of 30 µL/min. A ligand immobilization operation was carried out at a flow rate of 10 µL/min.
The surface of the NTA sensor chip was washed with 350 mM EDTA solution, nickel ions were loaded into the carbomethyldextran chains of the sensor chip with a 500 µM aqueous nickel chloride solution, and then washing was performed with 3 mM EDTA solution. After mixing 50 µL of each of 60 mM EDC solution (Cytiva) and 650 mM NHS solution (Cytiva), the mixture was reacted for 420 seconds at a flow rate of 10 µL/min. 150 µL of 0.2 µM hTfR solution was prepared by diluting with 10 mM acetic acid solution (pH 5.0), and reacted for 420 seconds at a flow rate of 10 µL/min to immobilize hTfR on the NTA sensor chip. For the human transferrin receptor (hTfR), the recombinant hTfR described in Example 2 of WO2018/124121 was used. After immobilization, capping was performed by reacting with 1.0 M ethanolamine aqueous solution (Cytiva) at a flow rate of 10 µL/min for 420 seconds. Peptide lysate prepared in DMSO to 10 mM was diluted with the running buffer to a final concentration of 10 µM peptide lysate, and then peptide solutions of 250 nM, 125 nM, 62.5 nM, 25 nM, and 12.5 nM were prepared. The kinetics of the peptide against hTfR was obtained by SPR measurement using the above samples.
The kinetic evaluation model was single-cycle kinetics, and curve fitting was performed using Biacore T200 Evaluation Software Version 3.0 (Cytiva). The binding of the peptide to hTfR was evaluated by performing curve fitting on the obtained sensorgram by the least squares method and obtaining the kon value, the koff value, and the KD value.

[1] = SPR, pH 6.0, peptide with the linker named in the table

Sequence of human transferrin receptor (hTfR) (P02786 whole entry): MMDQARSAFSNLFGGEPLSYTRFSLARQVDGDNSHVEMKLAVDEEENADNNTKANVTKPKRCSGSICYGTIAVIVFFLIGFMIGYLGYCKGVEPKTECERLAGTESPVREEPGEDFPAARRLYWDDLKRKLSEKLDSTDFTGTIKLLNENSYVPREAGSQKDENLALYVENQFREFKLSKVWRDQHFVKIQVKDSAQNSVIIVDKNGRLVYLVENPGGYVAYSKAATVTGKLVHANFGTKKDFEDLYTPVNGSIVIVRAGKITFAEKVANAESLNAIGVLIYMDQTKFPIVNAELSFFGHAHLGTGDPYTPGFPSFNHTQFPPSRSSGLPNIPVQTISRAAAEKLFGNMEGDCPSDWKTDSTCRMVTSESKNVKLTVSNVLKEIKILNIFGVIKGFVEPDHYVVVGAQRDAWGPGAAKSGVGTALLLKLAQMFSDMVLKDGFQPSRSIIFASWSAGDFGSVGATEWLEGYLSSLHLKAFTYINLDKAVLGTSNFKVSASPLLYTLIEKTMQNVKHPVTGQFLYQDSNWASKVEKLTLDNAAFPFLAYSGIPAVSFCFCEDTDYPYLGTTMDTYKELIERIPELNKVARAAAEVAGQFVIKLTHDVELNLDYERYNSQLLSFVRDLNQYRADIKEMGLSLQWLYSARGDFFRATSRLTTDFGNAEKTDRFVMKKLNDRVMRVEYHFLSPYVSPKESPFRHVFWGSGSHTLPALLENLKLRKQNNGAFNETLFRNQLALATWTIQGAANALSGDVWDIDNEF

Compound: CC[C@H](C)[C@@H]1NC(=O)[C@H](Cc2ccc(O)cc2)NC(=O)[C@H](Cc2ccc(N)nc2)NC(=O)[C@H](CC(N)=O)NC(=O)[C@H](Cc2c[nH]c3ccccc23)N(C)C(=O)[C@H](C(C)C)NC(=O)[C@H](Cc2ccccc2)N(C)C(=O)[C@H](C(C)C)NC(=O)[C@H](C)NC(=O)CSC[C@@H](C(=O)NCC(=O)N[C@H](CCC(=O)O)C(=O)N[C@H](CCC(=O)O)C(=O)N[C@H](CCC(=O)O)C(=O)N[C@H](CO)C(=O)N[C@H](CO)C(=O)N[C@@H](CCCCN=[N+]=[N-])C(N)=O)NC(=O)[C@H](Cc2ccc(C(=O)O)cc2)N(C)C(=O)[C@H](Cc2ccc(O)cc2)NC(=O)[C@H](CCCNC(=N)N)NC(=O)[C@H](CCCCN)NC(=O)[C@H]([C@@H](C)CC)NC1=O [compound 186]
Kd (SPR, pH 6.0, Table 1-3-2-2): 145 nM

Compound: CC[C@H](C)[C@@H]1NC(=O)[C@H](Cc2ccc(OCC(=O)NC[C@H](O)[C@@H](O)[C@H](O)[C@H](O)CO)cc2)NC(=O)[C@H](Cc2ccc(O)cc2)NC(=O)[C@H](CC(N)=O)NC(=O)[C@H](Cc2c[nH]c3ccccc23)NC(=O)[C@H](C(C)C)NC(=O)[C@H](Cc2cccc(Cl)c2)N(C)C(=O)[C@H](C(C)C)NC(=O)[C@H](C)NC(=O)CSC[C@@H](C(=O)NCCOCCOCCOCCOCCC(N)=O)NC(=O)[C@H](Cc2ccc(O)cc2)N(C)C(=O)[C@H](Cc2ccccc2)NC(=O)[C@H](CCC(N)=O)NC(=O)[C@H](CCC(=O)NC[C@H](O)[C@@H](O)[C@H](O)[C@H](O)CO)NC(=O)[C@H]([C@@H](C)CC)NC1=O [compound 39] ({CH2CO}-AV[NMePhe(3-Cl)]VWNYY(CH2CO(D-glucamine))IIE(NH(1-deoxy-D-glucityl))QF[NMeY]C[PEG4]-NH2; thioether N-15)
Kd (pH 6.0, single-cycle kinetics): 12.4 nM

Compound: CCC(CC)[C@@H]1NC(=O)[C@H](Cc2ccc(OCC(=O)O)cc2)NC(=O)[C@H](Cc2ccc(O)cc2)NC(=O)[C@H](CC(N)=O)NC(=O)[C@H](Cc2cn(CC(=O)O)c3ccccc23)NC(=O)[C@H](C(C)C)NC(=O)[C@H](Cc2cccc(Cl)c2)N(C)C(=O)[C@H](C(C)C)NC(=O)[C@H](C)NC(=O)CSC[C@@H](C(=O)NCCOCCOCCOCCOCCC(N)=O)NC(=O)[C@H](Cc2ccc(O)cc2)N(C)C(=O)[C@H](Cc2ccnc(C)c2)NC(=O)[C@H](CCCNC(=N)N)NC(=O)[C@H](CCC(N)=O)NC(=O)[C@H]([C@@H](C)CC)NC1=O [compound 152] ({CH2CO}-AV[NMePhe(3-Cl)]V[Trp(1-CH2COOH)]NYY(Carboxymethyl)[Nva(3-Et)]IQR[X6][NMeY]C[PEG4]-NH2; thioether N-15)
Kd (SPR, pH 6.0, Table 2-1-2): 116 nM

Compound: CCC(CC)[C@@H]1NC(=O)[C@H](Cc2ccc(OCC(=O)O)cc2)NC(=O)[C@H](Cc2ccc(NCC(=O)O)nc2)NC(=O)[C@H](CC(N)=O)NC(=O)[C@H](Cc2cn(CC(=O)O)c3ccccc23)NC(=O)[C@H](C(C)C)NC(=O)[C@H](Cc2cccc(Cl)c2)N(C)C(=O)[C@H](C(C)C)NC(=O)[C@H](C)NC(=O)CSC[C@@H](C(=O)NCCOCCOCCOCCOCCC(N)=O)NC(=O)[C@H](Cc2ccc(O)cc2)N(C)C(=O)[C@H](Cc2cccc(C(=O)O)c2)NC(=O)[C@H](CCCNC(=N)N)NC(=O)[C@H](CCC(N)=O)NC(=O)[C@H]([C@@H](C)CC)NC1=O [compound 150]
Kd (SPR, pH 6.0, Table 2-1-2): 58.9 nM

Compound: CC[C@H](C)[C@@H]1NC(=O)[C@H](Cc2ccc(OC)cc2)NC(=O)[C@H](CCCNC(=N)N)NC(=O)[C@H](CC(N)=O)NC(=O)[C@H](Cc2c[nH]c3ccccc23)N(C)C(=O)[C@H](C(C)C)NC(=O)[C@H](Cc2cccc(Cl)c2)N(C)C(=O)[C@H](C(C)C)NC(=O)[C@H](C)NC(=O)CSC[C@@H](C(=O)NCCOCCOCCOCCOCCC(N)=O)NC(=O)[C@H](Cc2ccc(O)cc2)N(C)C(=O)[C@H](Cc2ccccc2)NC(=O)[C@H](CCCNC(=N)N)NC(=O)[C@H](CCCCN)NC(=O)[C@H]([C@@H](C)CC)NC1=O [compound 173] ({CH2CO}-AV[NMePhe(3-Cl)]V[NMeW]NRY(Me)IIKRF[NMeY]C[PEG4]-NH2; thioether N-15)
Kd (pH 6.0, single-cycle kinetics): 13.3 nM

Compound: CCC(CC)[C@@H]1NC(=O)[C@H](Cc2ccc(NCC(=O)O)nc2)NC(=O)[C@H](Cc2ccc(O)cc2)NC(=O)[C@H](CC(N)=O)NC(=O)[C@H](Cc2cn(CC(=O)O)c3ccccc23)NC(=O)[C@H](C(C)C)NC(=O)[C@H](Cc2cccc(Cl)c2)N(C)C(=O)[C@H](C(C)C)NC(=O)[C@H](C)NC(=O)CSC[C@@H](C(=O)NCCOCCOCCOCCOCCC(N)=O)NC(=O)[C@H](Cc2ccc(O)cc2)N(C)C(=O)[C@H](Cc2cccc(C(=O)O)c2)NC(=O)[C@H](CCCNC(=N)N)NC(=O)[C@H](CCC(N)=O)NC(=O)[C@H]([C@@H](C)CC)NC1=O [compound 151]
Kd (SPR, pH 6.0, Table 2-1-2): 48.2 nM

Compound: CC[C@H](C)[C@@H]1NC(=O)[C@H](Cc2ccc(OC)cc2)NC(=O)[C@H](Cc2ccc(O)cc2)NC(=O)[C@H](CC(N)=O)NC(=O)[C@H](Cc2c[nH]c3ccccc23)N(C)C(=O)[C@H](C(C)C)NC(=O)[C@H](Cc2cccc(Cl)c2)N(C)C(=O)[C@H](C(C)C)NC(=O)[C@H](C)NC(=O)CSC[C@@H](C(=O)NCCOCCOCCOCCOCCC(N)=O)NC(=O)[C@H](Cc2ccc(O)cc2)N(C)C(=O)[C@H](Cc2ccccc2)NC(=O)[C@H](CCCNC(=N)N)NC(=O)[C@H](CCC(=O)NCCCN)NC(=O)[C@H]([C@@H](C)CC)NC1=O [compound 171]
Kd (pH 6.0, single-cycle kinetics): 0.678 nM

Results, then the compound that gave them:

Kd [1]: 13.2 nM
Compound: CCC(CC)[C@@H]1NC(=O)[C@H](Cc2ccc(O)cc2)NC(=O)[C@H](Cc2ccc(O)cc2)NC(=O)[C@H](CC(N)=O)NC(=O)[C@H](Cc2c[nH]c3ccccc23)N(C)C(=O)[C@H](C(C)C)NC(=O)[C@H](Cc2cccc(Cl)c2)N(C)C(=O)[C@H](C(C)C)NC(=O)[C@H](C)NC(=O)CSC[C@@H](C(=O)NCCOCCOCCOCCOCCC(N)=O)NC(=O)[C@H](Cc2ccc(O)cc2)N(C)C(=O)[C@H](Cc2ccc(O)cc2)NC(=O)[C@H](CCCNC(=N)N)NC(=O)[C@H](CCCCN)NC(=O)[C@H](CO)NC1=O [compound 132] ({CH2CO}-AV[NMePhe(3-Cl)]V[NMeW]NYY[Nva(3-Et)]SKRY[NMeY]C[PEG4]-NH2; thioether N-15)

Kd [1]: 15.3 nM
Compound: CC[C@H](C)[C@@H]1NC(=O)[C@H](Cc2ccc(O)cc2)NC(=O)[C@H](Cc2ccc(O)cc2)NC(=O)[C@H](CC(N)=O)NC(=O)[C@H](Cc2c[nH]c3ccccc23)N(C)C(=O)[C@H](C(C)C)NC(=O)[C@H](Cc2cccnc2)N(C)C(=O)[C@H](C(C)C)NC(=O)[C@H](C)NC(=O)CSC[C@@H](C(=O)NCCOCCOCCOCCOCCC(N)=O)NC(=O)[C@H](Cc2ccc(O)cc2)N(C)C(=O)[C@H](Cc2ccc(O)cc2)NC(=O)[C@H](CCCNC(=N)N)NC(=O)[C@H](CCCCN)NC(=O)[C@H]([C@@H](C)CC)NC1=O [compound 135]

Kd [1]: 17.4 nM
Compound: CC[C@H](C)[C@@H]1NC(=O)[C@H](Cc2ccc(O)cc2)NC(=O)[C@H](Cc2ccc(N)nc2)NC(=O)[C@H](CC(N)=O)NC(=O)[C@H](Cc2c[nH]c3ccccc23)NC(=O)[C@H](C(C)C)NC(=O)[C@H](Cc2ccccc2)N(C)C(=O)[C@H](C(C)C)NC(=O)[C@H](C)NC(=O)CSC[C@@H](C(=O)NCCOCCOCCOCCOCCC(N)=O)NC(=O)[C@H](Cc2ccc(O)cc2)N(C)C(=O)[C@H](Cc2ccc(O)cc2)NC(=O)[C@H](CCCNC(=N)N)NC(=O)[C@H](CCCCN)NC(=O)[C@H]([C@@H](C)CC)NC1=O [compound 123]

Kd [1]: 13.8 nM
Compound: CCC(CC)[C@@H]1NC(=O)[C@H](Cc2ccc(O)cc2)NC(=O)[C@H](Cc2ccc(O)cc2)NC(=O)[C@H](CC(N)=O)NC(=O)[C@H](Cc2c[nH]c3ccccc23)N(C)C(=O)[C@H](C(C)C)NC(=O)[C@H](Cc2ccccc2)N(C)C(=O)[C@H](C(C)C)NC(=O)[C@H](C)NC(=O)CSC[C@@H](C(=O)NCCOCCOCCOCCOCCC(N)=O)NC(=O)[C@H](Cc2ccc(O)cc2)N(C)C(=O)[C@H](Cc2ccc(O)cc2)NC(=O)[C@H](CCCNC(=N)N)NC(=O)[C@H](CCCCN)NC(=O)[C@H]([C@@H](C)CC)NC1=O [compound 117]
